Results as given in EPA's ToxRefDB 2.

Key:
[1] = tested on: mouse; conditions: Multigenerational reproductive toxicity study, cd1, Oral, Water, dose end: 2 generation
[2] = tested on: rat; conditions: Subchronic oral toxicity in rodents, fischer, Water, dose end: 93 day
[3] = tested on: rat; conditions: Developmental neurotoxicity study, fischer, Oral, Gavage/Intubation, dose end: 22 PND, group: cannot be grouped
[4] = tested on: rat; conditions: Combined chronic toxicity/carcinogenicity, fischer, Oral, Water, dose end: 24 month, group: systemic
[5] = tested on: mouse; conditions: Prenatal developmental toxicity study, cd1, Oral, Gavage/Intubation, dose end: 17 GD
[6] = tested on: rat; conditions: Developmental neurotoxicity study; sprague dawley; Oral; Gavage/Intubation; dose end: 77 PND; group: cannot be grouped; systemic / in life observation / body weight / body weight
[7] = tested on: rat; conditions: Developmental neurotoxicity study; wistar; Oral; Gavage/Intubation; dose end: 91 PND; group: cannot be grouped; systemic / in life observation / body weight / body weight + systemic / in life observation / body weight / body weight gain + systemic / in…
[8] = tested on: rat; conditions: Neurotoxicity screening battery; long evans; Injection; Intraperitoneal; dose end: 13 week; group: cannot be grouped; systemic / in life observation / clinical signs / abnormal gait + systemic / in life observation / clinical signs / irritability + systemic…
[9] = tested on: rat; conditions: Prenatal developmental toxicity study; sprague dawley; Oral; Gavage/Intubation; dose end: 20 GD; group: maternal; systemic / in life observation / body weight / body weight gain
[10] = tested on: rat; conditions: Prenatal developmental toxicity study, sprague dawley, Oral, Gavage/Intubation, dose end: 17 GD
[11] = tested on: rat; conditions: Sub-acute repeat dose toxicity, sprague dawley, Oral, Gavage/Intubation, dose end: 4 week, group: systemic
[12] = tested on: rabbit; conditions: Prenatal developmental toxicity study, new zealand white, Oral, Gavage/Intubation, dose end: 19 GD
[13] = tested on: rat; conditions: Prenatal developmental toxicity study, sprague dawley, Oral, Gavage/Intubation, dose end: 17 GD; remark: listed apart in the source
[14] = tested on: rat; conditions: Fertility (Segment I), sprague dawley, Oral, Gavage/Intubation, dose end: 7 GD
[15] = tested on: rat; conditions: Prenatal developmental toxicity study; sprague dawley; Oral; Gavage/Intubation; dose end: 17 GD; group: maternal; systemic / in life observation / body weight / body weight + systemic / in life observation / body weight / body weight gain + systemic / in…
[16] = tested on: rat; conditions: Fertility (Segment I), sprague dawley, Oral, Gavage/Intubation, dose end: 7 GD; remark: listed apart in the source
[17] = tested on: rabbit; conditions: Prenatal developmental toxicity study; new zealand white; Oral; Gavage/Intubation; dose end: 19 GD; group: maternal; systemic / in life observation / body weight / body weight gain + systemic / in life observation / food consumption / food consumption
[18] = tested on: dog; conditions: Sub-acute repeat dose toxicity, beagle, Oral, Capsule, dose end: 1 month, group: systemic
[19] = tested on: mouse; conditions: Subchronic oral toxicity in rodents, b6c3f1, Gavage/Intubation, dose end: 14 week, group: systemic
[20] = tested on: mouse; conditions: Combined chronic toxicity/carcinogenicity, b6c3f1, Oral, Gavage/Intubation, dose end: 105 week, group: systemic
[21] = group: parental, systemic / in life observation / body weight / body weight + systemic / organ weight / adrenal gland / absolute + systemic / organ weight / …
[22] = group: reproductive, reproductive / offspring survival early / live fetuses / live fetuses
[23] = group: cholinesterase, cholinesterase / cholinesterase / cholinesterase / cholinesterase (che)
[24] = group: systemic, systemic / clinical chemistry / alkaline phosphatase (alp/alk) / alkaline phosphatase (alp/alk) + systemic / hematology / erythrocyte (rbc) …
[25] = systemic / in life observation / body weight / offspring (pup) weight + reproductive / reproductive performance / pregnancy index / …
[26] = systemic / pathology microscopic / testes / mesothelioma nos + systemic / pathology microscopic / brain / astrocytoma nos + systemic / …
[27] = group: developmental, systemic / in life observation / body weight / fetal weight
[28] = group: maternal, systemic / in life observation / body weight / body weight gain + systemic / in life observation / clinical signs / splayed hindlimbs + …
[29] = group: developmental, developmental / developmental malformation / bone / unossified + systemic / in life observation / body weight / fetal weight
[30] = group: maternal, systemic / in life observation / body weight / body weight + systemic / in life observation / body weight / body weight gain + systemic / in…
[31] = systemic / clinical chemistry / alanine aminotransferase (alt/sgpt) / alanine aminotransferase (alt/sgpt) + systemic / in life observation…
[32] = systemic / organ weight / salivary glands / absolute + systemic / pathology microscopic / vagina / diestrus
[33] = group: developmental, developmental / developmental malformation / bone / incomplete ossification + developmental / developmental malformation / bone / unossified…
[34] = group: maternal, systemic / in life observation / body weight / body weight gain + systemic / in life observation / food consumption / food consumption
[35] = group: maternal, systemic / in life observation / body weight / body weight gain + systemic / in life observation / food consumption / food consumption + …
[36] = group: developmental, developmental / developmental malformation / trunk / absent genital tubercle + developmental / developmental malformation / trunk / anal …
[37] = group: maternal, reproductive / reproductive performance / estrous cycle / abnormal + reproductive / reproductive performance / estrous cycle / corpora lutea…
[38] = group: parental, systemic / in life observation / body weight / body weight + systemic / in life observation / body weight / body weight gain
[39] = group: parental, systemic / in life observation / body weight / body weight + systemic / in life observation / body weight / body weight gain + systemic / in…
[40] = group: maternal, reproductive / reproductive performance / estrous cycle / abnormal
[41] = group: parental, systemic / in life observation / body weight / body weight gain
[42] = group: parental, systemic / in life observation / body weight / body weight gain + systemic / in life observation / food consumption / food consumption
[43] = systemic / in life observation / clinical signs / defecation (diarrhea)
[44] = systemic / in life observation / clinical signs / defecation (diarrhea) + systemic / clinical chemistry / alanine aminotransferase (alt/sgpt…
[45] = systemic / hematology / erythrocyte (rbc) count differential / erythrocyte (rbc) + systemic / hematology / hematocrit (hct) / hematocrit (…
[46] = systemic / hematology / hemoglobin (hgb) / hemoglobin (hgb)
[47] = systemic / pathology microscopic / ovary / atrophy + systemic / pathology microscopic / ovary / cyst + systemic / pathology microscopic / …
[48] = systemic / pathology microscopic / ovary / cyst + systemic / pathology microscopic / harderian gland / adenoma

C=CC(N)=O [Acrylamide]
LOAEL [1, 21]: > 7.7 mg/kg/day | NEL [1, 21]: 0.86 mg/kg/day | NOAEL [1, 21]: ≥ 7.7 mg/kg/day | LEL ([1]; group: parental, systemic / organ weight / adrenal gland / absolute + systemic / organ weight / kidney / absolute + systemic / organ weight / liver / …): 2.9 mg/kg/day | LEL [1, 22]: 7.7 mg/kg/day | LOAEL [1, 22]: > 7.7 mg/kg/day | NOAEL [1, 22]: ≥ 7.7 mg/kg/day | LEL [2, 23]: 20 mg/kg/day | LOAEL [2, 23]: > 20 mg/kg/day | NEL [2, 23]: 5 mg/kg/day | NOAEL [2, 23]: ≥ 20 mg/kg/day | LOAEL [2, 24]: > 20 mg/kg/day | NOAEL [2, 24]: ≥ 20 mg/kg/day | NEL ([2]; group: systemic, systemic / hematology / erythrocyte (rbc) count differential / erythrocyte (rbc) + systemic / hematology / hematocrit (hct) / hematocrit (…): 0.2 mg/kg/day | LEL ([2]; group: systemic, systemic / pathology microscopic / nerve / [other]): 1 mg/kg/day | LEL ([3]; systemic / in life observation / body weight / offspring (pup) weight): 1 mg/kg/day | NEL ([3]; systemic / in life observation / body weight / offspring (pup) weight + developmental / developmental landmark / pinna unfolding / pinna …): 0.5 mg/kg/day | LOAEL [3, 25]: > 10 mg/kg/day | NOAEL [3, 25]: ≥ 10 mg/kg/day | LEL ([4]; systemic / pathology microscopic / testes / mesothelioma nos): 0.1 mg/kg/day | LOAEL [4, 26]: > 2 mg/kg/day | NEL [4, 26]: 0.01 mg/kg/day | NOAEL [4, 26]: ≥ 2 mg/kg/day | LEL [5, 27]: 45 mg/kg/day | LOAEL [5, 27]: > 45 mg/kg/day | NEL [5, 27]: 15 mg/kg/day | NOAEL [5, 27]: ≥ 45 mg/kg/day | LOAEL [5, 28]: > 45 mg/kg/day | NEL [5, 28]: 3 mg/kg/day | NOAEL [5, 28]: ≥ 45 mg/kg/day | LEL ([5]; group: maternal, systemic / organ weight / uterus / nos): 15 mg/kg/day | LEL [6]: 5 mg/kg/day | LOAEL [6]: 5 mg/kg/day | NEL [6]: < 5 mg/kg/day | NOAEL [6]: < 5 mg/kg/day | LEL [7]: 25 mg/kg/day | LOAEL [7]: > 25 mg/kg/day | NEL [7]: < 25 mg/kg/day | NOAEL [7]: ≥ 25 mg/kg/day | LEL [8]: 1 mg/kg/day | LOAEL [8]: > 12 mg/kg/day | NEL [8]: < 1 mg/kg/day | NOAEL [8]: ≥ 12 mg/kg/day | LEL [9]: 7.5 mg/kg/day | LOAEL [9]: 7.5 mg/kg/day | NEL [9]: 2.5 mg/kg/day | NOAEL [9]: 2.5 mg/kg/day

CN(C)C(=O)NC1(c2ccccc2)CCN(CC[C@@]2(c3ccc(F)c(F)c3)CN(C(=O)c3ccccc3)CCO2)CC1.Cl
LEL [10, 29]: 250 mg/kg/day | LOAEL [10, 29]: 250 mg/kg/day | NEL [10, 29]: 70 mg/kg/day | NOAEL [10, 29]: 70 mg/kg/day | LEL [10, 30]: 250 mg/kg/day | LOAEL [10, 30]: 250 mg/kg/day | NEL [10, 30]: 70 mg/kg/day | NOAEL [10, 30]: 70 mg/kg/day | LOAEL [11, 31]: 100 mg/kg/day | NOAEL [11, 31]: 20 mg/kg/day | LEL [11, 32]: 20 mg/kg/day | NEL [11, 32]: < 20 mg/kg/day | LEL [12, 33]: 200 mg/kg/day | LOAEL [12, 33]: 200 mg/kg/day | NEL [12, 33]: 60 mg/kg/day | NOAEL [12, 33]: 60 mg/kg/day | LEL [12, 34]: 60 mg/kg/day | LOAEL [12, 34]: 60 mg/kg/day | NEL [12, 35]: 20 mg/kg/day | NOAEL [12, 35]: 20 mg/kg/day | LEL [13, 36]: 500 mg/kg/day | LOAEL [13, 36]: 500 mg/kg/day | NEL [13, 36]: 100 mg/kg/day | NOAEL [13, 36]: 100 mg/kg/day | LOAEL [13, 30]: 500 mg/kg/day | NEL [13, 30]: 20 mg/kg/day | NOAEL [13, 30]: 100 mg/kg/day | LEL ([13]; group: maternal, systemic / in life observation / clinical signs / piloerection + systemic / pathology gross / kidney / reduced size): 100 mg/kg/day | LEL [14, 37]: 250 mg/kg/day | LOAEL [14, 37]: > 250 mg/kg/day | NEL [14, 37]: 70 mg/kg/day | NOAEL [14, 37]: ≥ 250 mg/kg/day | LEL [14, 38]: 70 mg/kg/day | LOAEL [14, 38]: 70 mg/kg/day | NEL [14, 39]: 20 mg/kg/day | NOAEL [14, 39]: 20 mg/kg/day | LEL [15]: 250 mg/kg/day | LOAEL [15]: > 250 mg/kg/day | NEL [15]: < 250 mg/kg/day | NOAEL [15]: ≥ 250 mg/kg/day | LEL [16, 40]: 20 mg/kg/day | LOAEL [16, 40]: 100 mg/kg/day | NEL [16, 40]: < 20 mg/kg/day | NOAEL [16, 37]: 20 mg/kg/day | LEL [16, 41]: 20 mg/kg/day | NEL [16, 41]: < 20 mg/kg/day | LOAEL [16, 42]: 100 mg/kg/day | NOAEL [16, 42]: 20 mg/kg/day | LEL [17]: 100 mg/kg/day | LOAEL [17]: > 200 mg/kg/day | NEL [17]: 20 mg/kg/day | NOAEL [17]: ≥ 200 mg/kg/day | LEL [18, 43]: 20 mg/kg/day | NEL [18, 43]: < 20 mg/kg/day | LOAEL [18, 44]: > 180 mg/kg/day | NOAEL [18, 44]: ≥ 180 mg/kg/day

C=CC#N [Acrylonitrile]
LOAEL [19, 45]: > 60 mg/kg/day | NOAEL [19, 45]: ≥ 60 mg/kg/day | LEL [19, 46]: 5 mg/kg/day | NEL [19, 46]: < 5 mg/kg/day | LOAEL [20, 47]: 10 mg/kg/day | NOAEL [20, 47]: 2.5 mg/kg/day | LEL [20, 48]: 2.5 mg/kg/day | NEL [20, 48]: < 2.5 mg/kg/day
